Assay results: patent publication US8394823B2, “Triazolopyridine compounds useful as DGAT1 inhibitors” (Bristol-Myers Squibb Company, priority 2008, dated 2013)

Each compound was assayed against T1, recombinant human DGAT1 (Homo sapiens, UniProt O75907) (assay: DGAT1 enzyme assay). Conditions: membranes from Sf9 insect cells expressing recombinant human DGAT1; 25 μM 2-monooleoyl-glycerol, 25 μM [3H]-stearoyl-CoA, pH 7.4, 30 min, 25° C., SPA.
T1 construct: made in house; host or cells: Sf9 insect cells (baculovirus)
T1 sequence (O75907 1-488): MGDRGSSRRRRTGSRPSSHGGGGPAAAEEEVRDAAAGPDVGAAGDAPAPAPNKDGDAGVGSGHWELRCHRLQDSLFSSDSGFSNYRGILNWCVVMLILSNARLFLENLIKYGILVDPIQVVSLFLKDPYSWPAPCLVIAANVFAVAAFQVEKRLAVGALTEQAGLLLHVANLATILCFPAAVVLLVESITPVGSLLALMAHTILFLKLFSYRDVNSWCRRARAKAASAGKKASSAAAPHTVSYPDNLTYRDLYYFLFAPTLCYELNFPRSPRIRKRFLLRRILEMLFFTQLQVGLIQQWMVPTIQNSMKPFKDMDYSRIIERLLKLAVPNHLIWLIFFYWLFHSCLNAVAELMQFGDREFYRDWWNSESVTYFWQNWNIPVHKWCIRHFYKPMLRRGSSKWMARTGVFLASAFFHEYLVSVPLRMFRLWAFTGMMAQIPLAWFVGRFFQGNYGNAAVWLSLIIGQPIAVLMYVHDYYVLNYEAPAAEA
Type: biochemical
Experimental: DGAT1 enzyme assays were conducted using membranes isolated from Sf9 insect cells expressing the recombinant human DGAT1 cDNA. The assays were conducted in 384-well plates with total volume of 25 μl at 25° C. In each assay, 300 ng of recombinant human DGAT1 membrane was incubated with 25 μM of 2-monooleoyl-glycerol and 25 μM of [^3H]-stearoyl-CoA in 100 mM potassium phosphate (pH 7.4) for 30 min with various concentrations of compounds delivered in DMSO. The assay was terminated by the addition of 30 μl of Stopping Solution [50 mM HEPES, 5 mg/ml Yittrium Oxide (YOX) Polylysine SPA beads, 3.33 mg/ml Fraction V BSA, 200 μM Mercuric chloride]. The signal was measured using LEADSEEKER^SM for 5 minutes. To calculate the degree of inhibition, the zero level of enzyme activity (blank) was defined by the above assay using Sf9 cell membrane uninfected with baculovirus and the 100% level of DGAT1 enzyme activity was defined by human DGAT1 assay with the vehicle DMSO. The IC50 values of inhibitors were determined by Excel-fit.

Point of comparison: `O=C(O)[C@@H](Cc1nnc2cc(-c3ccc(Nc4nc5ccc(Cl)cc5s4)cc3)ccn12)C1CCCCC1` [Example 7, (S)-3-(7-(4-(6-Chlorobenzo[d]thiazol-2-ylamino)phenyl)-[1,2,4]triazolo[4,3-a]pyridin-3-yl)-2-cyclohexylpropanoic acid], IC50 2.8 µM. Against it:
- CC(C)[C@@H](Cc1nnc2cc(-c3ccc(Nc4nc5ccc(Cl)cc5s4)cc3)ccn12)C(=O)O [Example 2, (R)-2-((7-(4-(6-Chlorobenzo[d]thiazol-2-ylamino)phenyl)-[1,2,4]triazolo[4,3-a]pyridin-3-yl)methyl)-3-methylbutanoic acid] — 18-fold lower, 0.16 µM
- COC(=O)[C@@H](Cc1nnc2cc(-c3ccc(Nc4nc5ccc(Cl)cc5s4)cc3)ccn12)CC(C)C [Example 3B, (R)-Methyl 2-((7-(4-(6-chlorobenzo[d]thiazol-2-ylamino)phenyl)-[1,2,4]triazolo[4,3-a]pyridin-3-yl)methyl)-4-methylpentanoate] — 8.9-fold higher, 25 µM
- CC(C)C[C@@H](Cc1nnc2cc(-c3ccc(Nc4nc5ccc(Cl)cc5s4)cc3)ccn12)C(=O)O [Example 4, (S)-2-((7-(4-(6-Chlorobenzo[d]thiazol-2-ylamino)phenyl)-[1,2,4]triazolo[4,3-a]pyridin-3-yl)methyl)-4-methylpentanoic acid] — the same, 2.8 µM
- CC(C)[C@H](Cc1nnc2cc(-c3ccc(Nc4nc5ccc(Cl)cc5s4)cc3)ccn12)C(=O)O [Example 1, (S)-2-((7-(4-(6-Chlorobenzo[d]thiazol-2-ylamino)phenyl)-[1,2,4]triazolo[4,3-a]pyridin-3-yl)methyl)-3-methylbutanoic acid] — 280-fold lower, 0.01 µM
- COC(=O)[C@H](Cc1nnc2cc(-c3ccc(Nc4nc5ccc(Cl)cc5s4)cc3)ccn12)CC(C)C [Example 4B, (S)-Methyl 2-((7-(4-(6-chlorobenzo[d]thiazol-2-ylamino)phenyl)-[1,2,4]triazolo[4,3-a]pyridin-3-yl)methyl)-4-methylpentanoate] — 18-fold higher, 50 µM
- O=C(O)[C@@H](Cc1nnc2cc(-c3ccc(Nc4nc5ccc(Cl)cc5s4)cc3)ccn12)CC1CCCCC1 [Example 6, (R)-3-(7-(4-(6-Chlorobenzo[d]thiazol-2-ylamino)phenyl)-[1,2,4]triazolo[4,3-a]pyridin-3-yl)-2-(cyclohexylmethyl)propanoic acid] — within 1.5-fold, 3.6 µM
- CC(C)C[C@H](Cc1nnc2cc(-c3ccc(Nc4nc5ccc(Cl)cc5s4)cc3)ccn12)C(=O)O [Example 3, (R)-2-((7-(4-(6-Chlorobenzo[d]thiazol-2-ylamino)phenyl)-[1,2,4]triazolo[4,3-a]pyridin-3-yl)methyl)-4-methylpentanoic acid] — 8.8-fold lower, 0.32 µM
- CCCC[C@H](Cc1nnc2cc(-c3ccc(Nc4nc5ccc(Cl)cc5s4)cc3)ccn12)C(=O)O [Example 5, (R)-2-((7-(4-(6-Chlorobenzo[d]thiazol-2-ylamino)phenyl)-[1,2,4]triazolo[4,3-a]pyridin-3-yl)methyl)hexanoic acid] — 14-fold lower, 0.2 µM
- O=C(O)CCc1nnc2cc(-c3ccc(Nc4nc5ccc(Cl)cc5s4)cc3)ccn12 [Example 8, 3-(7-(4-(6-Chlorobenzo[d]thiazol-2-ylamino)phenyl)-[1,2,4]triazolo[4,3-a]pyridin-3-yl)propanoic acid] — 5.7-fold lower, 0.49 µM
- COC(=O)[C@@H](Cc1nnc2cc(-c3ccc(Nc4nc5ccc(Cl)cc5s4)cc3)ccn12)C(C)C [Example 1F, (S)-Methyl 2-((7-(4-(6-chlorobenzo[d]thiazol-2-ylamino)phenyl)-[1,2,4]triazolo[4,3-a]pyridin-3-yl)methyl)-3-methylbutanoate] — 2.6-fold higher, 7.2 µM
- COC(=O)[C@H](Cc1nnc2cc(-c3ccc(Nc4nc5ccc(Cl)cc5s4)cc3)ccn12)C(C)C [Example 2B, (R)-Methyl 2-((7-(4-(6-chlorobenzo[d]thiazol-2-ylamino)phenyl)-[1,2,4]triazolo[4,3-a]pyridin-3-yl)methyl)-3-methylbutanoate] — 5.4-fold higher, 15 µM
